The target of one test is T1, HSP90a protein (Homo sapiens, UniProt P07900).
T1 construct: purchased BPS Bioscience 50298
The experiment in a line: HSP90α-binding fluorescent polarization (FP) assay, BODIPY-labeled RNK04010 probe. Conditions: FP competition with RNK04010 (BODIPY-labeled), 5 nM, 300 min at 25° C. Summed up: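 Test compounds (2.5-fold serial dilution, 20 μM to 5.2 nM) competed with a fluorescent tracer for N-terminal HSP90a, with fluorescence polarization as the read-out. FITC-geldanamycin tracer was used at 5 nM final with 120 min incubation at 25° C; BODIPY-labeled RNK04010 was used at 5 nM final with 300 min incubation.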

Test [1] deals with MIA PaCa-2 human pancreatic carcinoma. The experiment in a line: MIA PaCa-2 CCK-8 proliferation assay. The class given is cell-based. Conditions: Homo sapiens, MIA PaCa-2, 72 h, MIA PaCa-2 cells. Summed up:
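Percent inhibition derived from CCK-8 optical signal, normalised between DMSO-only cells (0%) and cell-free medium containing DMSO as background. Cells: MIA PaCa-2 carrying 2 KRAS(G12C) copies; NCI-H358, NCI-H23 carrying 1 copy apiece. Concentrations spanned 1.02 nM–20 μM in threefold increments.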
Background: Tetrazolium dyes change colour on reduction, which living cells bring about.

The target in test [2] is T2, KRAS(G12C) (Homo sapiens, UniProt P01116, G12C). Description: KRAS(G12C)/SOS1 homogeneous time-resolved fluorescence (HTRF) assay. Set-up: purchased Cisbio 63ADK000CB16PEG. Conditions: absence of GTP, 4° C. for 3 hr, read-out: KRAS (G12C) binding. Summed up:
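HTRF kit measuring compound-induced block of KRAS(G12C)-SOS1 interaction without GTP. Compounds tested as 3-fold serial dilutions down to 1.02 nM, incubated with reaction components 3 h at 4 °C in sealed plates before fluorescence read.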

Test [3] addresses T2, KRAS(G12C). The experiment in a line: KRAS(G12C) Western blot protein degradation assay in LU65A cells. It counts as cell-based. Set-up: LU65A human lung cancer cell line, which expresses KRAS(G12C); host or cells: LU65A. Conditions: 6 hr. The method, boiled down: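 Cells treated with compound at various concentrations at 37 °C for 48 hr (MIA PaCa-2) or 6 hr (LU65A), then lysed in RIPA. Protein-normalized lysates immunoblotted for KRAS with β-actin, fluorescence quantified; DC50 is the concentration giving 50% of maximal KRAS degradation.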
(Immunoblotting shows a protein as a band on a membrane.)

Each structure is given as a SMILES string.

Consider four molecules from patent US20230391772A1, “METHODS AND COMPOSITIONS FOR TARGETED PROTEIN DEGRADATION” (Ranok Therapeutics (Hangzhou) Co. Ltd., priority 2020, published 2023).

T2 sequence (P01116 1-188 isoform P01116-2 G12C): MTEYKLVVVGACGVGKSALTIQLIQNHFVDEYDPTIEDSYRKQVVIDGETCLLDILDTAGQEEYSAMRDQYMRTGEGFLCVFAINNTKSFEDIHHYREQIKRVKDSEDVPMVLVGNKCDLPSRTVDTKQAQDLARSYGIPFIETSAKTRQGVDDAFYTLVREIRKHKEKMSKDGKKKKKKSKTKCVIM

As to `C=CC(=O)N1CCN(c2nc(OC[C@@H]3CC[C@H](CN4CCN(C(=O)C5CCN(Cc6ccc(-n7c(O)nnc7-c7cc(C)c(O)cc7O)cc6)CC5)CC4)N3C)nc3c2CCN(c2cccc4cccc(Cl)c24)C3)C[C@@H]1CC#N` [Compound 319, 2-[(2S)-4-[7-(8-chloronaphthalen-1-yl)-2-{[(2S,5R)-5-({4-[1-({4-[3-(2,4-dihydroxy-5-methylphenyl)-5-hydroxy-1,2,4-triazol-4-yl]phenyl}methyl)piperidine-4-carbonyl]piperazin-1-yl}methyl)-1-methylpyrrolidin-2-yl]methoxy}-5H,6H,8H-pyrido [3,4-d]pyrimidin-4-yl]-1-(prop-2-enoyl)piperazin-2-yl]acetonitrile], the IC50 on HSP90a protein and on KRAS(G12C) [2] was below 0.1 µM in each case. Also, the 50% effective concentration (EC50) (in general, the concentration giving half of the maximal effect) in test [1] lay within 0.1 to 1 µM. Besides, the DC50 (in general, the concentration giving 50% degradation) on KRAS(G12C) [3] was in the range of 0.1 to 1 µM.

Consider `C=CC(=O)N1CCN(c2nc(OC[C@@H]3CC[C@H](CN4CCN(Cc5ccc(-n6c(O)nnc6-c6cc(C(C)C)c(O)cc6O)cc5)CC4)N3C)nc3c2CCN(c2cccc4cccc(Cl)c24)C3)C[C@@H]1CC#N` [Compound 326, 2-[(2S)-4-[7-(8-chloronaphthalen-1-yl)-2-{[(2S,5R)-5-{[4-({4-[3-(2,4-dihydroxy-5-isopropylphenyl)-5-hydroxy-1,2,4-triazol-4-yl]-phenyl}methyl)piperazin-1-yl]methyl}-1-methylpyrrolidin-2-yl]methoxy}-5H,6H,8H-pyrido[3,4-d]pyrimidin-4-yl]-1-(prop-2-enoyl)piperazin-2-yl]acetonitrile], for which the IC50 at HSP90a protein and on KRAS(G12C) [2] was below 0.1 µM each time. This molecule yielded an EC50 in test [1] of 0.1 to 1 µM. This molecule showed a DC50 at KRAS(G12C) [3] of 0.1 to 1 µM.

As for `C=CC(=O)N1CCN(c2nc(OC[C@@H]3C[C@H](N4CCC5(CCN(Cc6ccc(-n7c(O)nnc7-c7cc(C(C)C)c(O)cc7O)cc6)CC5)CC4)CN3C)nc3c2CCN(c2cccc4cccc(Cl)c24)C3)C[C@@H]1CC#N` [Compound 334, 2-[(2S)-4-[7-(8-chloronaphthalen-1-yl)-2-{[(2S,4S)-4-[9-({4-[3-(2,4-dihydroxy-5-isopropylphenyl)-5-hydroxy-1,2,4-triazol-4-yl]phenyl}methyl)-3,9-diazaspiro[5.5]undecan-3-yl]-1-methylpyrrolidin-2-yl]methoxy}-5H,6H,8H-pyrido[3,4-d]pyrimidin-4-yl]-1-(prop-2-enoyl)piperazin-2-yl]acetonitrile], the IC50 on HSP90a protein and at KRAS(G12C) [2] was below 0.1 µM each time. The molecule also returned a concentration giving a half-maximal response (EC50) in test [1] below 0.1 µM. The DC50 at KRAS(G12C) [3] was in the range of 0.1 to 1 µM.

Regarding `C=CC(=O)N1CCN(c2nc(OC[C@@H]3C[C@H](N4CCC(C(=O)N5CCN(Cc6ccc(-n7c(C(=O)NCC(F)(F)F)nnc7-c7cc(C)c(O)cc7O)cc6)CC5)CC4)CN3C)nc3c2CCN(c2cccc4cccc(Cl)c24)C3)C[C@@H]1CC#N` [Compound 336, 4-{4-[(4-{1-[(3S,5S)-5-({[7-(8-chloronaphthalen-1-yl)-4-[(3S)-3-(cyanomethyl)-4-(prop-2-enoyl)piperazin-1-yl]-5H,6H,8H-pyrido[3,4-d]pyrimidin-2-yl]oxy}methyl)-1-methylpyrrolidin-3-yl]piperidine-4-carbonyl}piperazin-1-yl)methyl]phenyl}-5-(2,4-dihydroxy-5-methylphenyl)-N-(2,2,2-trifluoroethyl)-1,2,4-triazole-3-carbox-amide], the IC50 at HSP90a protein and on KRAS(G12C) [2] was below 0.1 µM throughout. Also, in test [1], the EC50 lay within 0.1 to 1 µM. The molecule further returned a 50% degradation concentration (DC50) at KRAS(G12C) [3] above 1 µM.
